Experimental data taken from patent US5436251A, “Treatment of anxiety and gastrointestinal disorders with azabicyclo carbonyl-2-(cyclopropylmethyloxy)benzamide” (John Wyeth & Brother, Limited, priority 1992, dated 1995).

Columns and labels:
[1] = Potential anxiolytic activity: mouse exploratory activity in a two-compartment light/dark box; type: in vivo; conditions: for minimal effective dose: Mus musculus, sc, read-out: minimum effective dose (MED)
Protocol: Compound A, the compound of GB 2236528A and a representative number of compounds disclosed in GB 2213816A which had high pA2 values in the 5-HT3 -antagonist test procedure given above were tested for potential anxiolytic activity by a test procedure measuring mouse exploratory activity in a two-compartment light/dark box based upon the procedure of B Costall et al, Neuropharmacology, 1987, 26, 195-200 and J. N. Crawley et al, Pharmac. Biochemo Behav., 1980, 13, 167-170. The test involves observing groups of mice placed in an open topped box, one third of which is painted black and illuminated under a dim red light and partitioned from the remainder of the box which is painted white and brightly illuminated. Access between the two sections is via an opening in the centre of the partition. The groups of mice are treated with vehicle or test compound and various behavioural parameters of the animals are measured including the number of exploratory rearings made by the mice in each section and the number of times the mice cross lines marked on the floor of each section. For each treatment group the mean numbers of line crossings and rears in each section of the box are calculated. Differences between drug-treated groups and vehicle-treated controls are compared using Student's unpaired t-test. […] Test compounds are considered to be active if they induce a similar set of changes and, in particular, if they produce a significant (p<0.05) increase in rearing activity in the light section of the box.

[2] = target: T1, 5-HT3 receptors (Rattus norvegicus, UniProt P35563); assay: 5-HT3 antagonistic activity in the rat vagus (antagonism of 5-HT depolarization of isolated vagus nerve, Schild analysis); parameters: species or system rat (Sprague-Dawley); conditions: for Kb: antagonism of 5-HT depolarization, rat vagus nerve in vitro, Schild analysis, read-out: pA2 (converted)
T1 construct: from tissue; host or cells: isolated vagus nerve segments, Sprague-Dawley rat
T1 sequence (P35563 24-483): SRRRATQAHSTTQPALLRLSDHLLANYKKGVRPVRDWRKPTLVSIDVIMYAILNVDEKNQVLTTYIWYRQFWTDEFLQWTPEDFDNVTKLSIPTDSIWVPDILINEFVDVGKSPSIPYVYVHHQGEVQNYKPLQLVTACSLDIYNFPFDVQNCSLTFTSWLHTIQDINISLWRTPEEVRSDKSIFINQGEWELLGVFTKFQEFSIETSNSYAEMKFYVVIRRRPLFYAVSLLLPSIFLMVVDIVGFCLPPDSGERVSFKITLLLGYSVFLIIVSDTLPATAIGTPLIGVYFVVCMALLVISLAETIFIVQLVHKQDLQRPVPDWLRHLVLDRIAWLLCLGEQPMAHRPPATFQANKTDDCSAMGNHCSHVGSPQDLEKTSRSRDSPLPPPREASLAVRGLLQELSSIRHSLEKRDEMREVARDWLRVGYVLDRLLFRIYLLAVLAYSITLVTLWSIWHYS
Protocol: Compound A, the compound of GB 2236528A and the compounds disclosed in GB 2213816A are tested for 5-HT3 antagonistic activity in the rat vagus by the following procedure:
The method is similar to that described by Ireland and Tyers, Br. J. Pharmac., 1987, 90, 229-238 and is dependent upon the ability of 5-HT to depolarize the vagus nerve in vitro.
Segments of the vagus nerve from Sprague-Dawley rats were placed in a perspex chamber and perfused with Krebs solution. Electrodes, positioned at either end of the nerve segment, were used to record the potential differences which ensued upon the addition of various concentrations of 5-HT to one end of the nerve segment.
Concentration-response curves to 5-HT were obtained in this manner prior to and following equilibration of the nerve segment with Krebs solution containing the test-substance.

[3] = significant (p<0.05) increase in rearing activity in the light section

SMILES	minimal effective dose [1, 3] [mg/kg]	potency as potential anxiolytic compared with GB 2236528A and GB 2213816A compounds ([1]; mouse light/dark box, s.c., comparison in words)	Kb [2] [nM]	potency as 5-HT3 antagonist compared with GB 2236528A and GB 2213816A compounds ([2]; rat vagus, comparison in words)	minimum effective dose (MED) ([1]; s.c., significant (p<0.05) increase in rearing activity in the light section) [mg/kg]
O=C(NC(=O)c1ccccc1OCC1CC1)N[C@H]1C[C@H]2CC[C@@H](C1)N2 [Compound A, (endo)-N-[[[8-azabicyclo[3.2.1]-octan-3-yl]amino]carbonyl]-2-(cyclopropylmethyloxy)benzamide]	0.001	surprisingly more potent	0.398	surprisingly more potent as 5-HT3 -antagonists	
O=C(NC(=O)c1ccccc1OCC1CC1)NC1CC2CCC(C1)N2 (stereo not shown) [Example 1]					0.1
CN1[C@@H]2CC[C@H]1C[C@@H](NC(=O)NC(=O)c1ccccc1OCC1CC1)C2 [Compound of GB 2236528A, (endo)-N-[[(8-methyl-8-azabicyclo[3.2.1]octan-3-yl)amino]carbonyl]-2-(cyclopropylmethoxy]benzamide]	0.01		1.26		
